From patent US20200289474A1, “METHODS OF TREATING PAIN WITH A THIAZOLINE ANTI-HYPERALGESIC” (priority 2019, published 2020)
Entries after “also recorded” stand apart in the source; their conditions may differ.

Legend:
[1] = rat pharmacokinetics after single PO dose; assay type: in vivo; conditions: for Compound 1 Concentration in Rat Plasma / Compound 1 Concentration in Rat Plasma, Average / mean Cmax / t1/2: 100 mg/kg single PO; for Compound 1 Concentration in Rat Plasma: individual animals
Description: In both assays, a deuterated (Compound 1-d4) internal standard was used.
The objective of this non-GLP study was to determine the pharmacokinetics of Compound 1 after a single oral (gavage) dose in rats, and to determine if Compound 1 undergoes epimerization in the rat. Compound 1 was administered to CD® IGS [Crl:CD(SD)] (Sprague Dawley) rats (5/sex/group) as a single oral gavage dose of 100 mg/kg in a vehicle of 0.5% aqueous HPMC. Rats were dosed at a dose volume of 10 mL/kg body weight.

[2] = stability in hepatocytes; assay type: in vitro ADME
From the text: Further metabolism work in additional species will be undertaken.

[3] = dog 7-day repeat dose PO study; assay type: in vivo; conditions: dog 7 Day PO, N = 1
Description: The objective was to develop a preliminary toxicity profile of Compound 1 following daily oral (gavage) administration for 7 days to male and female dogs to support dose selection for a 28-day toxicity study in dogs. Doses were selected based on the results of the MTD phase. Dose levels were 0 (Vehicle Control), 200, 350 and 400 mg/kg (1 dog/sex/group). The vehicle was 0.5% aqueous HPMC.
The animals used in this study were returned to the holding colony

[4] = target: T1, P-gp (Homo sapiens, UniProt P08183); test: transporter inhibition, Caco-2 cells, digoxin transport; assay type: in vitro ADME
T1 construct: Caco-2 cells; endogenous in cells; host or cells: Caco-2 cells
T1 sequence (P08183 whole entry): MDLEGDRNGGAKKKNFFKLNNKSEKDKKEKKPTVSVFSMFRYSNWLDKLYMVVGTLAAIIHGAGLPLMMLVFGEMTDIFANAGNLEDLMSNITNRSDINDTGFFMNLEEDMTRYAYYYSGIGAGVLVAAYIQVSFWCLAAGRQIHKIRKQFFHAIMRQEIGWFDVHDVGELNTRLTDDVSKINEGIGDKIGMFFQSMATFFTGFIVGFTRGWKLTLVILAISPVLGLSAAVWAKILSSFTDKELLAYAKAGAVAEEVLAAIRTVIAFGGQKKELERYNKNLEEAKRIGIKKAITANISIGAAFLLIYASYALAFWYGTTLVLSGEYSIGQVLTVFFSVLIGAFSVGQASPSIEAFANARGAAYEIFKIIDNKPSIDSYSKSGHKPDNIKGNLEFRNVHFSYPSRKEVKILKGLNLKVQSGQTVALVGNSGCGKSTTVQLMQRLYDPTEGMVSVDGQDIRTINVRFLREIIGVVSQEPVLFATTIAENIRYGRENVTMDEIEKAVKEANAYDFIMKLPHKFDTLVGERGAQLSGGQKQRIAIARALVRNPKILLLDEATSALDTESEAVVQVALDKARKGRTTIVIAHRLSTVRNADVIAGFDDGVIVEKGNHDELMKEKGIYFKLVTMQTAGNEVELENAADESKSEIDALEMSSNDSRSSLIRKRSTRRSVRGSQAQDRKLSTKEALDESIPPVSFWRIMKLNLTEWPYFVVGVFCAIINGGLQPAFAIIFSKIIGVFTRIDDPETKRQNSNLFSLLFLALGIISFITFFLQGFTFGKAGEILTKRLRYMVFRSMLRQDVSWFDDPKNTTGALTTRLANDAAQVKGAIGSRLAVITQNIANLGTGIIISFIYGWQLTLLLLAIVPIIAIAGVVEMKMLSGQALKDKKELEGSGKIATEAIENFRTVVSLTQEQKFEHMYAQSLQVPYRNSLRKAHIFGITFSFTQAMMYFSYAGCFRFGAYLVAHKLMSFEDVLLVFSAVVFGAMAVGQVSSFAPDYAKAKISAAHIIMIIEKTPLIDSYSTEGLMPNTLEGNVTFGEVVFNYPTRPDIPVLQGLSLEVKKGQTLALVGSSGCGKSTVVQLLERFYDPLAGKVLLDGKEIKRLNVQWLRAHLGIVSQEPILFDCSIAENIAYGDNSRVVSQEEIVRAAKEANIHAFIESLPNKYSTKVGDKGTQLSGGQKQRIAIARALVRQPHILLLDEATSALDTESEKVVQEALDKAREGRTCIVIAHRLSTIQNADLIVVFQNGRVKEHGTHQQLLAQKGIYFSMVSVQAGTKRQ

[5] = dog pharmacokinetics, single PO (10 mg/kg) and IV (3 mg/kg) dose; assay type: in vivo
Description: The objective of the first single dose non-GLP study in dogs was to determine the pharmacokinetics and bioavailability of Compound 1 after a single oral (gavage) or single intravenous (IV) dose in dogs. The test article formulation was administered to three male dogs orally via gavage at a dose level of 10 mg/kg (dosing volume of 2 mL/kg body weight). Following a wash-out period of a minimum of three days, the same three dogs were administered the test article formulation via an IV bolus push over approximately 1-2 minutes at a dose level of 3 mg/kg (dosing volume of 0.5 mL/kg). The vehicle for oral gavage dosing was 0.5% HPMC; the vehicle for IV injection was sterile phosphate buffered saline (PBS; pH 7.4). […] Animals were returned to quarantine after the last blood collection.

[6] = system: PN-mediated cytotoxicity; test: cell-based assays of PN-mediated cytotoxicity
[7] = system: normal sensation; test: normal sensation in uninjured animals
[8] = beagle dog single dose study IV 10 mg/kg, oral 10 and 100 mg/kg; assay type: in vivo; conditions: fasted beagle dogs
Description: In another study Compound 1 was administered IV as a single dose to fasted beagle dogs at 10 mg/kg and orally at 10 and 100 mg/kg. Compound 1 was rapidly and well absorbed orally, within 1 hr, reaching peak plasma concentrations of 15 and 108 μg/mL at 10 and 100 mg/kg doses, respectively. The compound distributed readily in tissues with a moderate steady-state volume of distribution (0.3 L/kg).

[9] = system: incision-induced hyperalgesia; test: mouse model of severe incision; assay type: in vivo; conditions: 10 mg/kg IP daily for 15 days; Days 1, 3, 6, 8, 10, 13, 15 and 21
From the text: Two incisional pain models were used to assess Compound 1 effects on hyperalgesia. The first model is referred to as the Brennan model in which, under anesthesia, a 1 cm longitudinal incision to the skin and underlying fascia of a rat hindpaw is made. The second is a variation but is a more invasive procedure in which the skin and muscle are spread apart using forceps which creates a longer-lasting hypersensitivity.
In a mouse model of severe incision (tissue and muscle spread with forceps), animals were at baseline for mechanical thresholds prior to incision and then given a daily dose of Compound 1 (10 mg/kg IP) or vehicle for 15 days.

[10] = male dogs, 10 mg/kg oral gavage

With CC1(C)SC(Nc2ccccc2O)=N[C@@H]1C(=O)O.Cl [Compound 1, (R)-2-(2-hydroxyphenylamino)-5,5-dimethyl-4,5-dihydrothiazole-4-carboxylic acid mono-hydrochloride] the “Compound 1 Concentration in Rat Plasma” value ([1]; Female, 0.5 h post-dose, mono-hydrochloride, 100 mg/kg) was 34.3 µg/mL, the “Compound 1 Concentration in Rat Plasma, Average” value ([1]; Female, 1 h post-dose) was 60.1 µg/mL and the “Compound 1 Concentration in Rat Plasma” value ([1]; Female, 1 h post-dose, mono-hydrochloride, 100 mg/kg) was 53.9 µg/mL. The “Compound 1 Concentration in Rat Plasma, Average” value ([1]; Female, 4 h post-dose) was 22.6 µg/mL, the “Compound 1 Concentration in Rat Plasma” value ([1]; Male, 0.5 h post-dose, mono-hydrochloride, 100 mg/kg) was 13.8 µg/mL and the “Compound 1 Concentration in Rat Plasma, Average” value ([1]; Male, 1 h post-dose) was 14.9 µg/mL. For the same molecule, the “Compound 1 Concentration in Rat Plasma, Average” value ([1]; Male, 2 h post-dose) was 14.3 µg/mL, the “Compound 1 Concentration in Rat Plasma” value ([1]; Male, 2 h post-dose, mono-hydrochloride, 100 mg/kg) was 16.3 µg/mL and the “Compound 1 Concentration in Rat Plasma” value ([1]; Male, 8 h post-dose, mono-hydrochloride, 100 mg/kg) was 1.61 µg/mL. The “Compound 1 Concentration in Rat Plasma” value ([1]; Male, 24 h post-dose) was “BQL”, the “mean Cmax” value ([1]; females) was 60 µg/mL and the t1/2 ([1]; females) was 4 h. For the same molecule, the “mean Cmax” value ([1]; males) was 15 µg/mL, the t1/2 ([1]; males) was 7 h and the “epimerization in vivo (chiral column)” value ([1]; rat plasma) was “did not provide any evidence of epimerization”. The stability in hepatocytes ([2]; dog hepatocytes, mono-hydrochloride) was “stable; also recorded: metabolic stability”, the stability in hepatocytes ([2]; human hepatocytes, mono-hydrochloride) was “stable; also recorded: metabolic stability” and the stability in hepatocytes ([2]; monkey hepatocytes) was “metabolic stability”. The stability in hepatocytes ([2]; rat hepatocytes, mono-hydrochloride) was “stable; also recorded: metabolic stability”, the AUC0-last ([3]; Day 1, 200 mg/kg, F) was 582 µg·h/mL and the Cmax ([3]; Day 1, 200 mg/kg, F) was 152 µg/mL. It also gave a t1/2 ([3]; Day 1, 200 mg/kg, F) of 1.3 h, an AUC0-last ([3]; Day 1, 200 mg/kg, M) of 538 µg·h/mL and a Cmax ([3]; Day 1, 200 mg/kg, M) of 150 µg/mL. It also gave a t1/2 ([3]; Day 1, 200 mg/kg, M) of 1.1 h, an AUC0-last ([3]; Day 1, 350 mg/kg, F) of 834 µg·h/mL and a Cmax ([3]; Day 1, 350 mg/kg, F) of 228 µg/mL. The t1/2 ([3]; Day 1, 350 mg/kg, F) was 1.2 h, the AUC0-last ([3]; Day 1, 350 mg/kg, M) was 613 µg·h/mL and the Cmax ([3]; Day 1, 350 mg/kg, M) was 176 µg/mL. For the same molecule, the t1/2 ([3]; Day 1, 350 mg/kg, M) was 1.1 h, the AUC0-last ([3]; Day 1, 400 mg/kg, F) was 464 µg·h/mL and the Cmax ([3]; Day 1, 400 mg/kg, F) was 109 µg/mL. The t1/2 ([3]; Day 1, 400 mg/kg, F) was 3.9 h, the AUC0-last ([3]; Day 1, 400 mg/kg, M) was 657 µg·h/mL and the Cmax ([3]; Day 1, 400 mg/kg, M) was 167 µg/mL. It also gave a t1/2 ([3]; Day 1, 400 mg/kg, M) of 1.2 h, an AUC0-last ([3]; Day 7, 200 mg/kg, F) of 411 µg·h/mL and a Cmax ([3]; Day 7, 200 mg/kg, F) of 103 µg/mL. For the same molecule, the t1/2 ([3]; Day 7, 200 mg/kg, F) was 1.5 h, the AUC0-last ([3]; Day 7, 200 mg/kg, M) was 540 µg·h/mL and the Cmax ([3]; Day 7, 200 mg/kg, M) was 121 µg/mL. It also gave a t1/2 ([3]; Day 7, 200 mg/kg, M) of 1.4 h, an AUC0-last ([3]; Day 7, 350 mg/kg, F) of 738 µg·h/mL and a Cmax ([3]; Day 7, 350 mg/kg, F) of 207 µg/mL. For the same molecule, the t1/2 ([3]; Day 7, 350 mg/kg, F) was 2.4 h, the tmax ([3]; Day 7, 350 mg/kg, F) was 0.5 h and the AUC0-last ([3]; Day 7, 350 mg/kg, M) was 591 µg·h/mL. It also gave a Cmax ([3]; Day 7, 350 mg/kg, M) of 184 µg/mL, a t1/2 ([3]; Day 7, 350 mg/kg, M) of 1.2 h and an AUC0-last ([3]; Day 7, 400 mg/kg, F) of 751 µg·h/mL. For the same molecule, the Cmax ([3]; Day 7, 400 mg/kg, F) was 183 µg/mL, the t1/2 ([3]; Day 7, 400 mg/kg, F) was 2.5 h and the AUC0-last ([3]; Day 7, 400 mg/kg, M) was 210 µg·h/mL. The Cmax ([3]; Day 7, 400 mg/kg, M) was 69 µg/mL, the t1/2 ([3]; Day 7, 400 mg/kg, M) was 1.3 h and the “inhibition” value [4] was “does not inhibit”. For the same molecule, the “epimerization in vivo (chiral column)” value ([5]; dog plasma) was “did not provide any evidence of epimerization”, the half-life ([5]; dog, plasma, male dogs, 10 mg/kg oral gavage, read-out: median t1/2 (converted)) was 1.4 h and the tmax ([5]; male dogs, 3 mg/kg IV bolus) was “about 5 minutes”. For the same molecule, the “average oral Cmax” value [5, 10] was 12 µg/mL, the tmax [5, 10] was “about 1 hour” and the mean oral bioavailability ([5]; male dogs, 10 mg/kg oral vs 3 mg/kg IV) was 72%. For the same molecule, the “effect in PN-mediated cytotoxicity” value [6] was “protective”, the “effect on normal sensation” value [7] was “does not alter normal sensation” and the mean terminal half-life [8] was 3.9 h. The “steady-state volume of distribution” value [8] was 0.3 L/kg, the oral bioavailability ([8]; both 10 and 100 mg/kg) was 75% and the peak plasma concentration ([8]; oral 10 mg/kg) was 15 µg/mL. For the same molecule, the peak plasma concentration ([8]; oral 100 mg/kg) was 108 µg/mL, the “time to peak plasma concentration” value ([8]; oral 10 and 100 mg/kg) was at most 1 h and the “hyperalgesia (mechanical thresholds)” value [9] was “protected from hyperalgesia”.
